Source: ChEMBL document CHEMBL2203000, “Discovery of AC710, a Globally Selective Inhibitor of Platelet-Derived Growth Factor Receptor-Family Kinases” (ACS Med Chem Lett, 2012)
Blank lines part the entries; values can stand above or below the compound they belong to.

Experiments:
[1] = Clearance in Sprague-Dawley rat plasma at 1 mg/kg, iv and 10 mg/kg, po by LC-MS/MS analysis; assay type: ADME, organism-based
[2] = Oral bioavailability in Sprague-Dawley rat plasma at 10 mg/kg by LC-MS/MS analysis; assay type: ADME, organism-based; conditions: Sprague-Dawley, plasma
[3] = AUC in Sprague-Dawley rat plasma at 10 mg/kg, po by LC-MS/MS analysis; assay type: ADME, organism-based; set-up: dose 10 mg/kg, route oral; conditions: Sprague-Dawley, plasma
[4] = Aqueous solubility of the compound at pH 2 to 7.4; assay type: physicochemical; conditions: buffer
Cytochrome P450 2C19 = Cytochrome P450 2C19 (Homo sapiens, UniProt P33261); test: Inhibition of CYP2C19; assay type: ADME
Cytochrome P450 2C9 = Cytochrome P450 2C9 (Homo sapiens, UniProt P11712); test: Inhibition of CYP2C9; assay type: ADME
Cytochrome P450 1A2 [5] = molecular target: T1, Cytochrome P450 1A2 (Homo sapiens, UniProt P05177); test: Inhibition of CYP1A2; assay type: ADME
T1 sequence (P05177 whole entry): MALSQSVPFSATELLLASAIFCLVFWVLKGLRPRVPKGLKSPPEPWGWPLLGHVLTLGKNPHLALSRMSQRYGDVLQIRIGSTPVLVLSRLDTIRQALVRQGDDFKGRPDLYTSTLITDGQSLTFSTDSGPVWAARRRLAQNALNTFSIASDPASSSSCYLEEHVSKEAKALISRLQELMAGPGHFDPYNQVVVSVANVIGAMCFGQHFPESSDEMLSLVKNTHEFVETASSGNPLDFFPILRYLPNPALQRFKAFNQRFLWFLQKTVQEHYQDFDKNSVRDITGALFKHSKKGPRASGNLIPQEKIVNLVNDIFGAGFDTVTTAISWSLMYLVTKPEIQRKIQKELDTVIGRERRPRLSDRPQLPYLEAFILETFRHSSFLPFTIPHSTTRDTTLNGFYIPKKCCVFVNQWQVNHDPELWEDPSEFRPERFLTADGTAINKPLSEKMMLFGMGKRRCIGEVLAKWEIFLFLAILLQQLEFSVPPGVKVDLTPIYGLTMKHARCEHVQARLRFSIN

[6] = Antitumor activity against mouse M-NFS-60 cells xenografted in CD-1 nude mouse assessed as inhibition of tumor growth at 30 mg/kg, po measured after 4 of tumor implantation; assay type: functional; conditions: read-out: TGI
[7] = molecular target: T2, Mast/stem cell growth factor receptor Kit (Homo sapiens, UniProt P10721); test: Inhibition of KIT phosphorylation in human H526 cells; assay type: cell-based
[8] = Antitumor activity against mouse M-NFS-60 cells xenografted in CD-1 nude mouse assessed as inhibition of tumor growth at 100 mg/kg, po measured after 4 of tumor implantation; assay type: functional; conditions: read-out: TGI
Rattus norvegicus [9] = test: Toxicity in rat assessed as diarrhea at 800 mg/kg administered for 7 days; assay type: organism-based; set-up: dose 800 mg/kg; conditions: in vivo, 168 h
[10] = AUC in po dosed CD-1 mouse by LC-MS/MS analysis; assay type: ADME, organism-based; conditions: plasma
Cytochrome P450 2D6 [11] = molecular target: T3, Cytochrome P450 2D6 (Homo sapiens, UniProt P10635); test: Inhibition of CYP2D6; assay type: ADME
Cytochrome P450 3A4 [12] = molecular target: T4, Cytochrome P450 3A4 (Homo sapiens, UniProt P08684); test: Inhibition of CYP3A4; assay type: ADME
[13] = molecular target: T2, Mast/stem cell growth factor receptor Kit; test: Binding affinity to KIT expressed in HEK-293 cells; assay type: cell-based, HEK293
[14] = Antitumor activity against mouse M-NFS-60 cells xenografted in CD-1 nude mouse assessed as inhibition of tumor growth at 10 mg/kg, po measured after 4 of tumor implantation; assay type: functional; conditions: read-out: TGI
Rattus norvegicus [15] = test: Toxicity in rat at 200 mg/kg administered for 7 days; assay type: organism-based; set-up: dose 200 mg/kg; conditions: in vivo, 168 h
[16] = molecular target: T5, Platelet-derived growth factor receptor beta (Homo sapiens, UniProt P09619); test: Inhibition of PDGFRbeta phosphorylation in human MG63 cells; assay type: cell-based, MG-63
[17] = Antitumor activity against mouse M-NFS-60 cells xenografted in CD-1 nude mouse assessed as inhibition of tumor growth at 3 mg/kg, po measured after 4 of tumor implantation; assay type: functional; conditions: read-out: TGI
Cytochrome P450 2D6 [18] = molecular target: T3, Cytochrome P450 2D6; test: Induction of CYP2D6 at 3 to 30 uM; assay type: ADME
Rattus norvegicus [19] = test: Toxicity in rat assessed as mortality at 800 mg/kg administered for 7 days; assay type: organism-based; set-up: dose 800 mg/kg; conditions: in vivo, 168 h
Cytochrome P450 1A2 [20] = molecular target: T1, Cytochrome P450 1A2; test: Induction of CYP1A2 at 3 to 30 uM; assay type: ADME
[21] = molecular target: T5, Platelet-derived growth factor receptor beta; test: Binding affinity to PDGFRbeta expressed in HEK-293 cells; assay type: cell-based, HEK293
[22] = molecular target: T6, Macrophage colony-stimulating factor 1 receptor (Homo sapiens, UniProt P07333); test: Inhibition of M-CSF-induced […] -fussed CSF1R phosphorylation expressed in HEK293 cells after 2 hrs by sandwich ELISA; assay type: cell-based
[23] = molecular target: Platelet-derived growth factor receptor alpha (Homo sapiens, UniProt P16234); test: Binding affinity to PDGFRalpha expressed in HEK-293 cells; assay type: cell-based, HEK293
Cytochrome P450 3A4 [24] = molecular target: T4, Cytochrome P450 3A4; test: Induction of CYP3A4 at 3 to 30 uM; assay type: ADME
Mus musculus [25] = test: Toxicity in collagen-induced arthritis mouse assessed as body weight and body condition at 3 to 30 mg/kg for 15 days; assay type: organism-based; set-up: dose 3-30 mg/kg; conditions: in vivo, 360 h
[26] = molecular target: T7, Receptor-type tyrosine-protein kinase FLT3 (Homo sapiens, UniProt P36888); test: Binding affinity to FLT3 expressed in HEK-293 cells after 1 hr; assay type: cell-based, HEK293
T7 sequence (P36888 whole entry): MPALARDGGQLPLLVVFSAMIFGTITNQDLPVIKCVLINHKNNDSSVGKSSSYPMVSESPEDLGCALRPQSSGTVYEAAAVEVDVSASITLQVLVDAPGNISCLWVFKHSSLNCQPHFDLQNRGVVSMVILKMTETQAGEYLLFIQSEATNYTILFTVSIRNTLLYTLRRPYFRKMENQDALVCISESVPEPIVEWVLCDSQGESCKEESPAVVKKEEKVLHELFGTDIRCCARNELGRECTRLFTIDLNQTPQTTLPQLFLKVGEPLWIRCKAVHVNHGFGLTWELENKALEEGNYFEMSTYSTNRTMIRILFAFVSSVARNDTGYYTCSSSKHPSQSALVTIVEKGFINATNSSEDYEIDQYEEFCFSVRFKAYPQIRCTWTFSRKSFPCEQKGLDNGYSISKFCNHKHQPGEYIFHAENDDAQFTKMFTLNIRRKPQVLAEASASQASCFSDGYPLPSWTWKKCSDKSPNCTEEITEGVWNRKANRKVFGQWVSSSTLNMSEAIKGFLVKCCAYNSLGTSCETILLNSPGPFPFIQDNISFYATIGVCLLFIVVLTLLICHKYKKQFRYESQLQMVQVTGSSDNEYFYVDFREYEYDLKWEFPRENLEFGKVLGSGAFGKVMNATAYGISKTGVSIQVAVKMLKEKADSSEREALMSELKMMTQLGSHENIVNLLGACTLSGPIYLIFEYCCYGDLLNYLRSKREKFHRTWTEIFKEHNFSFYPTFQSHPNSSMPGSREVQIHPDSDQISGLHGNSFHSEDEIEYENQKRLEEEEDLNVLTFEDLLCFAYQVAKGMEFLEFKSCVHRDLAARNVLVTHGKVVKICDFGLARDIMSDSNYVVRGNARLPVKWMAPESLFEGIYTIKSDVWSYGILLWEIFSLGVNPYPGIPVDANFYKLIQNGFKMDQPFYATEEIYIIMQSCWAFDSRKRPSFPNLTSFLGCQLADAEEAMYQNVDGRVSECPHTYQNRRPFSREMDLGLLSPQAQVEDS

[27] = molecular target: T6, Macrophage colony-stimulating factor 1 receptor; test: Binding affinity to CSF1R expressed in HEK-293 cells after 1 hr; assay type: cell-based, HEK293
[28] = molecular target: T7, Receptor-type tyrosine-protein kinase FLT3; test: Inhibition of FLT3 phosphorylation in human MV4-11 cells; assay type: cell-based
Mus musculus [29] = test: Toxicity in human MV4-11 cells xenografted in SCID mouse assessed as change in body weight at 0.3 to 30 mg/kg foe 2 weeks; assay type: organism-based; set-up: dose 0.3-30 mg/kg; conditions: in vivo, 336 h
NFS-60 = test: Antitumor activity against mouse M-NFS-60 cells xenografted in CD-1 nude mouse assessed as inhibition of tumor growth measured after 4 days of tumor implantation; assay type: functional, cell-based

T3 sequence (P10635 whole entry): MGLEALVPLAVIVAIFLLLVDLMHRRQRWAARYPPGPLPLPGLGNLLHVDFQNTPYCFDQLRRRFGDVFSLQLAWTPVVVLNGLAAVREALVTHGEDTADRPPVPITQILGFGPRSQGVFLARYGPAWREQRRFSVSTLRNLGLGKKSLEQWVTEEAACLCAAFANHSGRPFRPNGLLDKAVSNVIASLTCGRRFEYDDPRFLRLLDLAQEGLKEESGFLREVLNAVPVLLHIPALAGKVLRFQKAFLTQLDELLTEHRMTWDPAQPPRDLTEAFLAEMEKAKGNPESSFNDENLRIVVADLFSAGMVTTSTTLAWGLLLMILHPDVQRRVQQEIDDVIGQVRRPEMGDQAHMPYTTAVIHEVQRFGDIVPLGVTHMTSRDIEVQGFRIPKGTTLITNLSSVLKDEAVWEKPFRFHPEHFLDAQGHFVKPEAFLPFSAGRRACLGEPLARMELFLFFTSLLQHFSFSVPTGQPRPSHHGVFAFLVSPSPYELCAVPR
T2 sequence (P10721 whole entry): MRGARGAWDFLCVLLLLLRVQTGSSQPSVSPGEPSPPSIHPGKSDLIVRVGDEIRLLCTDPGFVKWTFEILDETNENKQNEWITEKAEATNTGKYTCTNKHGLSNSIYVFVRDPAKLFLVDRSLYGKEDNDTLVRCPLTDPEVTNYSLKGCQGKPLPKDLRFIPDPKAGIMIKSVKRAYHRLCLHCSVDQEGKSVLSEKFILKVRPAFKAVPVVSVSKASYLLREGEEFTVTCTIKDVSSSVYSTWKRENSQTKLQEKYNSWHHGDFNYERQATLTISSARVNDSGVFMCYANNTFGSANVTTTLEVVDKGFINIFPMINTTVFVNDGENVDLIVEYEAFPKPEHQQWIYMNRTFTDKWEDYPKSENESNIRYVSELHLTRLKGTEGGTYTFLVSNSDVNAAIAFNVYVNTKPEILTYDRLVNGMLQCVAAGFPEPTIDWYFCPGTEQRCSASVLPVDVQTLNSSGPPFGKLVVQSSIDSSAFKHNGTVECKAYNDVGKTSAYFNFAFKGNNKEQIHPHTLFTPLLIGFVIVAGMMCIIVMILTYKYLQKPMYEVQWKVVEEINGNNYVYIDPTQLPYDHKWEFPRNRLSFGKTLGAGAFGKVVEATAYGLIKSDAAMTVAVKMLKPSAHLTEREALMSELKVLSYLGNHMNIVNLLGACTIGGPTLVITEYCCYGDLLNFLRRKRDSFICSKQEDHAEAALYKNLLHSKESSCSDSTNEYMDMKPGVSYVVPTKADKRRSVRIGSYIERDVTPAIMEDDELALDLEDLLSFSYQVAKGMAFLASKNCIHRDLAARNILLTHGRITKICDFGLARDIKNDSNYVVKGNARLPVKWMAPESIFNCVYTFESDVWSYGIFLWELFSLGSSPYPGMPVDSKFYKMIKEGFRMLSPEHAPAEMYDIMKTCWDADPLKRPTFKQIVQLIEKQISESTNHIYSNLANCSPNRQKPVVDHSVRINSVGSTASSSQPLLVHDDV
Cytochrome P450 2C19, sequence (P33261 whole entry): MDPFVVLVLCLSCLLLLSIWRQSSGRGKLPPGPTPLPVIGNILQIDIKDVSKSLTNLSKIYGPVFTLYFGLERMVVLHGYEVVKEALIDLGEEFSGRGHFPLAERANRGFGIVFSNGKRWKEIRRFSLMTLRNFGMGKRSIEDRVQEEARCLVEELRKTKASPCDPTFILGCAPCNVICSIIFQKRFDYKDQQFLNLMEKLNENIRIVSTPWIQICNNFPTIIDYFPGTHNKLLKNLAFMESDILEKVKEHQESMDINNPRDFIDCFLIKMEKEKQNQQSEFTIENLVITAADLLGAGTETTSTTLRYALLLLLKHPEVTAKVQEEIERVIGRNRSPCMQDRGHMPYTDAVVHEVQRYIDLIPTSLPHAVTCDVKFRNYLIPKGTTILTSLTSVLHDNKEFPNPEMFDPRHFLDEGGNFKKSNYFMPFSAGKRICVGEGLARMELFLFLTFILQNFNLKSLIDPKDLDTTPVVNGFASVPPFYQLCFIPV
Cytochrome P450 2C9, sequence (P11712 whole entry): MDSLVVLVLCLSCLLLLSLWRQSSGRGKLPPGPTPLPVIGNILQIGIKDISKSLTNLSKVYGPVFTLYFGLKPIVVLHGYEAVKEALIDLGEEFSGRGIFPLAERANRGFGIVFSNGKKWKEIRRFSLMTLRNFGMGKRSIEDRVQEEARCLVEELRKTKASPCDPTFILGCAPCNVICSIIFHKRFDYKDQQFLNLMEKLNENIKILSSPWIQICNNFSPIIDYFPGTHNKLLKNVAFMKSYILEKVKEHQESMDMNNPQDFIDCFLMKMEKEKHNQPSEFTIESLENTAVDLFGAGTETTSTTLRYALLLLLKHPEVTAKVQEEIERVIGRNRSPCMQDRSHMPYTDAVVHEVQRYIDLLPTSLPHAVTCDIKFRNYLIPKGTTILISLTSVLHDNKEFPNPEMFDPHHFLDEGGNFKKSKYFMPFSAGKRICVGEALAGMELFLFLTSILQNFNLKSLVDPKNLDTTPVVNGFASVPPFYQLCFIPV
T6 sequence (P07333 whole entry): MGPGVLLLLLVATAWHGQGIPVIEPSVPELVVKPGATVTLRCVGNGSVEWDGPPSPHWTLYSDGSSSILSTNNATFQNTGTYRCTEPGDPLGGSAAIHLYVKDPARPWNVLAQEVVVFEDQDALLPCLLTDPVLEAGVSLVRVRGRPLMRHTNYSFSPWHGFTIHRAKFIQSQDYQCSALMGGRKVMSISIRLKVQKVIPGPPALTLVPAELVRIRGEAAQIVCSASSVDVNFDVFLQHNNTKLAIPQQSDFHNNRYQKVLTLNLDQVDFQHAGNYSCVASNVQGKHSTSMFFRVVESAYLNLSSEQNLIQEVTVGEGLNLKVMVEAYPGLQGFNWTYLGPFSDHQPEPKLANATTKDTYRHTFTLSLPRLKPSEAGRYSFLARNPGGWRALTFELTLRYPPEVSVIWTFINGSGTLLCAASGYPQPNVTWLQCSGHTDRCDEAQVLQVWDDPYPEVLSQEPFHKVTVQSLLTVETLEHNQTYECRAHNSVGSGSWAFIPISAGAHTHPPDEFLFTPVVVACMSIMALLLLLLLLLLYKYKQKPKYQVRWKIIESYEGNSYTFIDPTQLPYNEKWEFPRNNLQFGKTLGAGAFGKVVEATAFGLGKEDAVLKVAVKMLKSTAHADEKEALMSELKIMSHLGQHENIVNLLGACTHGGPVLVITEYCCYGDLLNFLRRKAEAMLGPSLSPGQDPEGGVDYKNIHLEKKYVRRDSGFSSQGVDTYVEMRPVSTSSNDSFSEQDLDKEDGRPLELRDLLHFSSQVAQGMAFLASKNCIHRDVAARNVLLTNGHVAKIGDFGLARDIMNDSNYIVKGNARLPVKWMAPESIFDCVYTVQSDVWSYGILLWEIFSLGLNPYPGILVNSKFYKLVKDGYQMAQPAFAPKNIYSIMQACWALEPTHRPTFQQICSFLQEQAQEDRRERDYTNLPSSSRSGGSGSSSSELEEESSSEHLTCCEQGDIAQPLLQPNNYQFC
T4 sequence (P08684 whole entry): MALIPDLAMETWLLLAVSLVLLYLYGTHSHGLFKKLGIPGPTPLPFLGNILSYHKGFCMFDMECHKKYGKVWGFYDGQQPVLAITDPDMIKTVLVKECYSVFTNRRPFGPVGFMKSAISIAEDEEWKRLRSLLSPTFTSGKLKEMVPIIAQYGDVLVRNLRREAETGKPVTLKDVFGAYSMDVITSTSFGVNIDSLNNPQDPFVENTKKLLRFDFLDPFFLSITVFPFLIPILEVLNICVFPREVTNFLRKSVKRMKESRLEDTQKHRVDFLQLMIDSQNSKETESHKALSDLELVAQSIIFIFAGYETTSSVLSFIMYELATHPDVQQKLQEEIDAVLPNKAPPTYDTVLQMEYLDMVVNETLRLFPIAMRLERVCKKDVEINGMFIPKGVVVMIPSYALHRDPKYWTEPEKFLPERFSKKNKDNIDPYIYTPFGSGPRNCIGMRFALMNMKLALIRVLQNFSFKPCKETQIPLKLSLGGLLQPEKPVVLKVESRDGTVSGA
Platelet-derived growth factor receptor alpha, sequence (P16234 whole entry): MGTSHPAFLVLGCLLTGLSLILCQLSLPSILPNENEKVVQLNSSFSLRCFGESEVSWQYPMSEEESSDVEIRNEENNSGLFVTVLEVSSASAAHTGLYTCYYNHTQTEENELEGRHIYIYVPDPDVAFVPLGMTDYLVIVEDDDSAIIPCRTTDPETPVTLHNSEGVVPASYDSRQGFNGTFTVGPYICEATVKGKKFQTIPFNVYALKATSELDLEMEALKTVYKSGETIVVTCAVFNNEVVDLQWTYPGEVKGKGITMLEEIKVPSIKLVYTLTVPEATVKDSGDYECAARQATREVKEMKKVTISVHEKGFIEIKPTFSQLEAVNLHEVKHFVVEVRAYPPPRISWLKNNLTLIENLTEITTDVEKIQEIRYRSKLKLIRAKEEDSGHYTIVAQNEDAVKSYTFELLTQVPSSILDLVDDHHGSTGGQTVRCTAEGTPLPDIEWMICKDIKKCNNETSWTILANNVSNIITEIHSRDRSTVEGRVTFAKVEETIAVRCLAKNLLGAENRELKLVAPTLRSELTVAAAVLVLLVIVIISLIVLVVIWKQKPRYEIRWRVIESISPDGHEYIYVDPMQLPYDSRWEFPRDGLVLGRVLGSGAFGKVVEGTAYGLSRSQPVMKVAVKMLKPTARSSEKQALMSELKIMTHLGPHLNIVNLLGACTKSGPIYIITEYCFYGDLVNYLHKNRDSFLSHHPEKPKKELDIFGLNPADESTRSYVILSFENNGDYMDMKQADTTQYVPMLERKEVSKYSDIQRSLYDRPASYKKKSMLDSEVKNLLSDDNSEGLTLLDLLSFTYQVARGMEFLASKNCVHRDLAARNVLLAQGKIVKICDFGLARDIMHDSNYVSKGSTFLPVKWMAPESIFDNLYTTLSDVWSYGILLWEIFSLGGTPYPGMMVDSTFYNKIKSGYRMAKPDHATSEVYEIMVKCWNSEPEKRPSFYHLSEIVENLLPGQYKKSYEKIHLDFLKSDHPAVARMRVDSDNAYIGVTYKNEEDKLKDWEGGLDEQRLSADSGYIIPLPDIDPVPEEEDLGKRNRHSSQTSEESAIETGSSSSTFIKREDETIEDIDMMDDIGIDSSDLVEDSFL

SMILES: CC1(C)CC(Oc2ccc(C(=O)Nc3ccc(NC(=O)Nc4cc(C(C)(C)C)on4)cc3)nc2)CC(C)(C)N1
clearance [1]: 11 mL/min/kg
bioavailability [2]: 8%
AUC [3]: 2.4 µM·h

SMILES: CC(C)(C)c1cc(NC(=O)Nc2ccc(NC(=O)c3cc4ccccc4cn3)cc2)no1
clearance [1]: 47 mL/min/kg
bioavailability [2]: 9%
AUC [3]: 0.8 µM·h
solubility [4]: < 5 µg/mL

SMILES: CCN1C(C)(C)CC(Oc2ccc(C(=O)Nc3ccc(NC(=O)Nc4cc(C(C)(C)C)on4)cc3)nc2)CC1(C)C
IC50 (Cytochrome P450 2C19): > 40000 nM
IC50 (Cytochrome P450 2C9): > 40000 nM
IC50 [16]: 7.7 nM
inhibition in vivo at 3 mg/kg [17]: 29%
Activity (Cytochrome P450 2D6 [18]): Not Active
Activity (Rattus norvegicus [19]): Non-toxic
Activity (Cytochrome P450 1A2 [20]): Not Active
Kd [21]: 1 nM
IC50 [22]: 10.5 nM
IC50 (Cytochrome P450 1A2 [5]): > 40000 nM
inhibition in vivo at 30 mg/kg [6]: 79%
IC50 [7]: 1.2 nM
clearance [1]: 14 mL/min/kg
Activity (Rattus norvegicus [9]): Toxic
AUC [10]: 56.4 µM·h
bioavailability [2]: 44%
AUC [3]: 10 µM·h
Kd [23]: 1.3 nM
IC50 (Cytochrome P450 2D6 [11]): > 40000 nM
Activity (Cytochrome P450 3A4 [24]): Not Active
Activity (Mus musculus [25]): Non-toxic
Kd [26]: 0.5 nM
Kd [27]: 1.57 nM
IC50 [28]: 2 nM
Kd [13]: 1 nM
Activity (Mus musculus [29]): Non-toxic
inhibition in vivo at 10 mg/kg [14]: 54%
Activity (Rattus norvegicus [15]): Non-toxic

SMILES: CN1C(C)(C)CC(Oc2ccc(C(=O)Nc3ccc(NC(=O)Nc4cc(C(C)(C)C)on4)cc3)nc2)CC1(C)C
inhibition (NFS-60): Dose-dependent effect

Continued, in another order:

clearance [1]: 16 mL/min/kg
bioavailability [2]: 17.5%
AUC [3]: 3.5 µM·h
SMILES: CC(C)N1CCC(Oc2ccc(C(=O)Nc3ccc(NC(=O)Nc4cc(C(C)(C)C)on4)cc3)nc2)CC1

clearance [1]: 37.9 mL/min/kg
bioavailability [2]: 4%
AUC [3]: 0.5 µM·h
SMILES: Cc1ccnc(C(=O)Nc2ccc(NC(=O)Nc3cc(C(C)(C)C)on3)cc2)c1

IC50 (Cytochrome P450 2C19): > 40000 nM
IC50 (Cytochrome P450 2C9): > 40000 nM
IC50 (Cytochrome P450 1A2 [5]): > 40000 nM
IC50 [7]: 7.9 nM
clearance [1]: 25.8 mL/min/kg
AUC [10]: 9.9 µM·h
bioavailability [2]: 20%
AUC [3]: 4.8 µM·h
IC50 (Cytochrome P450 2D6 [11]): > 40000 nM
IC50 (Cytochrome P450 3A4 [12]): > 40000 nM
Kd [13]: 0.6 nM
SMILES: CCN1CCC(Oc2ccc(C(=O)Nc3ccc(NC(=O)Nc4cc(C(C)(C)C)on4)cc3)nc2)CC1
inhibition in vivo at 30 mg/kg [6]: 46%
inhibition in vivo at 100 mg/kg [8]: 73%
Activity (Rattus norvegicus [9]): Toxic
inhibition in vivo at 10 mg/kg [14]: 31%
Activity (Rattus norvegicus [15]): Non-toxic

clearance [1]: 35.8 mL/min/kg
bioavailability [2]: 3%
AUC [3]: 0.4 µM·h
SMILES: CC(C)(C)c1cc(NC(=O)Nc2ccc(NC(=O)c3cc(OC4CCNCC4)ccn3)cc2)no1

clearance [1]: 12 mL/min/kg
bioavailability [2]: 36%
AUC [3]: 9.5 µM·h
SMILES: CC(C)(C)c1cc(NC(=O)Nc2ccc(NC(=O)c3ccc(OC4CCN(C5CC5)CC4)cn3)cc2)no1

clearance [1]: 37.6 mL/min/kg
bioavailability [2]: 9.9%
AUC [3]: 0.9 µM·h
SMILES: CCN1CCC(c2ccc(C(=O)Nc3ccc(NC(=O)Nc4cc(C(C)(C)C)on4)cc3)nc2)CC1
